The data set can be described thus: logP from HPLC retention times. The class given is physicochemical.

By chromatographic logP is commonly meant a lipophilicity value derived from retention on a column.

`COc1ccc(Cl)cc1Nc1nc(-c2sc(NC(=O)C(C)(C)C)nc2C)c(-n2cc(CO)nn2)s1` [compound 13, N-(2-(5-Chloro-2-methoxyphenylamino)-5-(4-(hydroxyl-methyl)-1H-1,2,3-triazol-1-yl)-4′-methyl-4,5′-bithiazol-2′-yl)pivalamide] came in with a chromatographic logP of 4.8 to 5.5. `COC(=O)c1cn(-c2sc(Nc3cc(Cl)ccc3OC)nc2-c2sc(NC(=O)C(C)(C)C)nc2C)nn1` [compound 14, Methyl 1-(2-(5-chloro-2-methoxyphenylamino)-4′-methyl-2′-pivalamido-4,5′-bithiazol-5-yl)-1H-1,2,3-triazole-4-carboxylate] had a chromatographic logP of 4.8 to 5.5. Compound `COc1ccc(Cl)cc1Nc1nc(-c2sc(NC(=O)C(C)(C)C)nc2C)c(-n2cc(C(=O)O)nn2)s1` [compound 15, 1-(2-(5-Chloro-2-methoxyphenylamino)-4′-methyl-2′-pivalamido-4,5′-bithiazol-5-yl)-1H-1,2,3-triazole-4-carboxylic acid] returned a chromatographic logP of 4.8 to 5.5.

(Values after article PMC3419814 (Bioorganic & medicinal chemistry, 2012).)
